Read-outs that look alike come from different tables or passages of the source.
Molecular target: human TRPA1 channel (Homo sapiens (Human), UniProt O75762)
Test: hTRPA1 CHO Ca2+ FLIPR Tetra assay, block of cinnamaldehyde induced calcium influx
Assay type: cell-based
Conditions: CHO cells expressing TRPA1, Hill coefficient fixed to 1.5
Summary of the method: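 Calcium-dye-loaded TRPA1-expressing CHO cells in HBSS/20 mM HEPES pH 7.4, 0.02% BSA were preincubated with compound for 10 or 90 min at room temperature. Calcium influx evoked by roughly an EC50 concentration of cinnamaldehyde was then read on FLIPR Tetra; IC50 came from curve fits with a fixed Hill coefficient.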

[1] = read-out: hTRPA1 IC50 (10 min), compounds incubated 10 minutes at room temperature before cinnamaldehyde agonist
[2] = read-out: hTRPA1 IC50 (90 min), compounds incubated 90 minutes at room temperature before cinnamaldehyde agonist

Chain of human TRPA1 channel (O75762 whole entry): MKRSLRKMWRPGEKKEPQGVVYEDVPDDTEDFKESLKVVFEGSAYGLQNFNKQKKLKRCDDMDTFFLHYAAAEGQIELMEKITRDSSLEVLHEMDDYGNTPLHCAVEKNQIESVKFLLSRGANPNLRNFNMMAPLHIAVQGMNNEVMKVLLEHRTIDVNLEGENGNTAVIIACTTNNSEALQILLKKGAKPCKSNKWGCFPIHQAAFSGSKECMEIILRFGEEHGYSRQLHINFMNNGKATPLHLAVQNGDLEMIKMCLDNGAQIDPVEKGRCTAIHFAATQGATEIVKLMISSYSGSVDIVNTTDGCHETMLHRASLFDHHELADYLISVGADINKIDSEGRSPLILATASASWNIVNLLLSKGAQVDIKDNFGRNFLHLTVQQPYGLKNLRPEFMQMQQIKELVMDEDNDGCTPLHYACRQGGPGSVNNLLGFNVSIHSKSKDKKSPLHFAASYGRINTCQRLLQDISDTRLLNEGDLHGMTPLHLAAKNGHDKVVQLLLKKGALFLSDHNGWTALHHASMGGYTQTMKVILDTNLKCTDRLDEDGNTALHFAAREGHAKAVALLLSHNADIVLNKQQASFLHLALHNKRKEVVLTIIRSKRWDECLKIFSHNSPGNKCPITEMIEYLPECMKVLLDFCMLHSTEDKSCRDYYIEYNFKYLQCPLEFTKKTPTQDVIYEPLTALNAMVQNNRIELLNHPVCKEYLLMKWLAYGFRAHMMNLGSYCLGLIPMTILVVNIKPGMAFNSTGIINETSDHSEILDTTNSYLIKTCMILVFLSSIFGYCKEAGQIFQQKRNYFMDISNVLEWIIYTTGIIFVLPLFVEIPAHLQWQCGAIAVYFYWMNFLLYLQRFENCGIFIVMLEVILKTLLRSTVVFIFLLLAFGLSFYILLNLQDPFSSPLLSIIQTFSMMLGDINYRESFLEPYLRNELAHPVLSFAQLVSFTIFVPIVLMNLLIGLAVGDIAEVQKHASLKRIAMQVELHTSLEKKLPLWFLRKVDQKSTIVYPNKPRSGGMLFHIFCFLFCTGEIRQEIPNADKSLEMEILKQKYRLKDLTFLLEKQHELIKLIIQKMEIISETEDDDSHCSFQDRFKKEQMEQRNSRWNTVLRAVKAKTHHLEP

Work on `O=c1c2ccc(Cl)nc2ncn1Cc1nc([C@H]2[C@@H]3CN(c4cccc(F)c4)C[C@@H]32)no1` [Example Compound 272, 7-chloro-3-[[3-[(1R,5S)-3-(3-fluorophenyl)-3-azabicyclo[3.1.0]hexan-6-yl]-1,2,4-oxadiazol-5-yl]methyl]pyrido[2,3-d]pyrimidin-4-one] yielded an IC50 [1] of 0.0583 µM and an IC50 [2] of 0.035 µM.
For `O=c1c2cccc(=O)n2ccn1Cc1nc([C@@H]2[C@H]3C=C(c4ccccc4)C[C@H]32)no1` [Example Compound 275, 2-[[3-[(1R,5R,6S)-3-phenyl-6-bicyclo[3.1.0]hex-2-enyl]-1,2,4-oxadiazol-5-yl]methyl]pyrido[1,2-a]pyrazine-1,6-dione], the IC50 [1] was 0.0119 µM and the IC50 [2] was 0.0065 µM.
With `Cn1cnc2ncn(Cc3nc([C@H]4[C@@H]5CN(c6ccc(Cl)cc6F)C[C@@H]54)no3)c(=O)c21` [Example Compound 276, 7-methyl-1-[[3-[(1S,5R)-3-(4-chloro-2-fluorophenyl)-3-azabicyclo[3.1.0]hexan-6-yl]-1,2,4-oxadiazol-5-yl]methyl]purin-6-one] the IC50 [1] was 0.015 µM and the IC50 [2] was 0.0074 µM.
Work on `Cn1cnc2ncn(Cc3nc([C@@H]4[C@H]5C=C(c6ccc(-c7cnco7)cc6)C[C@H]54)no3)c(=O)c21` [Example Compound 277, 7-methyl-1-[[3-[(1R,5R,6S)-3-(4-oxazol-5-ylphenyl)-6-bicyclo[3.1.0]hex-2-enyl]-1,2,4-oxadiazol-5-yl]methyl]purin-6-one] yielded an IC50 (compounds incubated 10 minutes at room temperature before cinnamaldehyde agonist) of 0.0168 µM and an IC50 (compounds incubated 90 minutes at room temperature before cinnamaldehyde agonist) of 0.011 µM.
Work on `Cn1cnc2ncn(Cc3nc([C@H]4[C@@H]5C=C(c6ccc7ncsc7c6)C[C@@H]54)no3)c(=O)c21` [Example Compound 278, 7-methyl-1-[[3-[(1S,5S,6R)-3-(1,3-benzothiazol-6-yl)-6-bicyclo[3.1.0]hex-2-enyl]-1,2,4-oxadiazol-5-yl]methyl]purin-6-one] yielded an IC50 [1] of 0.0158 µM and an IC50 [2] of 0.0031 µM.
`O=c1c2cccnc2cnn1Cc1nc([C@H]2[C@@H]3CN(c4ccc5ncsc5c4)C[C@@H]32)no1` [Example Compound 279, 6-[[3-[(1R,5S)-3-(1,3-benzothiazol-6-yl)-3-azabicyclo[3.1.0]hexan-6-yl]-1,2,4-oxadiazol-5-yl]methyl]pyrido[2,3-d]pyridazin-5-one] gave an IC50 [1] of 0.0112 µM and an IC50 [2] of 0.0056 µM.
`Cn1cnc2ncn(Cc3nc([C@@H]4[C@H]5C=C(c6cccc(-c7cnco7)c6)C[C@H]54)no3)c(=O)c21` [Example Compound 280, 7-methyl-1-[[3-[(1R,5R,6S)-3-(3-oxazol-5-ylphenyl)-6-bicyclo[3.1.0]hex-2-enyl]-1,2,4-oxadiazol-5-yl]methyl]purin-6-one] gave an IC50 [1] of 0.0461 µM and an IC50 [2] of 0.04 µM.
With `Cn1cnc2ncn(Cc3nc([C@@H]4[C@H]5C=C(c6ccc(C(F)F)cc6)C[C@H]54)no3)c(=O)c21` [Example Compound 281, 7-methyl-1-[[3-[(1R,5R,6S)-3-[4-(difluoromethyl)phenyl]-6-bicyclo[3.1.0]hex-2-enyl]-1,2,4-oxadiazol-5-yl]methyl]purin-6-one] the IC50 [1] was 0.0679 µM and the IC50 [2] was 0.035 µM.
For `Cn1cnc2ncn(Cc3nc([C@@H]4[C@H]5C=C(c6cccc(F)c6F)C[C@H]54)no3)c(=O)c21` [Example Compound 282, 7-methyl-1-[[3-[(1R,5R,6S)-3-(2,3-difluorophenyl)-6-bicyclo[3.1.0]hex-2-enyl]-1,2,4-oxadiazol-5-yl]methyl]purin-6-one], the IC50 (read-out: hTRPA1 IC50 (10 min), compounds incubated 10 minutes at room temperature before cinnamaldehyde agonist, listed as 282) was 0.0169 µM and the IC50 (read-out: hTRPA1 IC50 (90 min), compounds incubated 90 minutes at room temperature before cinnamaldehyde agonist, listed as 282) was 0.0031 µM.
For `Cn1cnc2ncn(Cc3nc([C@@H]4[C@H]5C=C(c6ccc(C#N)c(F)c6)C[C@H]54)no3)c(=O)c21` [Example Compound 283, 2-fluoro-4-[(1R,5R,6S)-6-[5-[(7-methyl-6-oxo-purin-1-yl)methyl]-1,2,4-oxadiazol-3-yl]-3-bicyclo[3.1.0]hex-2-enyl]benzonitrile], the IC50 [1] was 0.0196 µM and the IC50 [2] was 0.0053 µM.

Reference: US10711004B2 (Genentech, Inc., priority 2018, dated 2020)
